The assay deals with human melanoma cell line (Mel-Ho). The experiment in a line: Melanocyte dendrite outgrowth assay. Format: cell-based. The following applies: Mel-Ho cells; for induction of melanocyte dendricity (in words): different concentrations, 24 hours. From the text:
A possibility to test the effect of a compound on melanocyte function as a measure for pigmentation, the melanocyte dendrite outgrowth assay can be performed. Vitiligo melanocytes for example have only stubby dendrites. Increasing dendricity as a prerequisite for the transfer of the melanosomes from melanocytes to the surrounding keratinocytes rescues this defect. For this assay, cells from a human melanoma cell line (Mel-Ho) were obtained from DSMZ (Deutsche Sammlung für Mikroorganismen and Zellkulturen) and were cultured according to the protocol provided by DSMZ. In short, after thawing the melanocytes were cultured in T-75 flasks in melanocyte culture media (provided by the manufacturer) until they reach 70-80% confluency. The melanocytes were then trypsinized, transferred into 5-10 new T-75 flasks, and grown again to same confluency as described above. After this expansion step the melanocytes were immediately used for the Melanocyte Dendrite Outgrowth Assay or were frozen for later use. For the assay, the melanocytes were seeded in 24 well plates at a density of 1-5×10^4 cells/well. After 24 hours, the melanocytes were treated with 100 μM IBMX (Sigma-Aldrich) or different concentrations of Sildenafil and Tadalafil for 24 hours. IBMX (=3-isobutyl-1-methylxanthin) is known to cause increased melanocyte dendricity and was used as a positive control. Cells treated with media only were used as a negative control. Melanocyte dendrite outgrowth was documented by digital photography (Canon G2 Powershot) after 3, 6 and 24 hours. In addition, melanocyte dendricity was scored by 3 blinded individuals after 24 hours. The score ranges from 1 to 4; 1 representing melanocytes with no dendrites and 4 representing melanocytes with many long and branched dendrites. […] 10 μM Sildenafil was used to obtain an score of >3, however also lower concentrations (down to 10 nM) of Sildenafil was sufficient to induce dendrite formation. The experiment was performed as described in Example 1, however using Tadalafil as active component.

“Also recorded” adds a separate entry of the source.

For `CN1CC(=O)N2C(Cc3c([nH]c4ccccc34)[C@H]2c2ccc3c(c2)OCO3)C1=O` (stereo partly drawn) [Tadalafil, (6R,12aR)-2,3,6,7,12,12a-hexahydro-2-methyl-6-(3,4-methylenedioxyphenyl)pyrazino[1′,2′:1,6]pyrido[3,4-b]indole-1,4-dione], the “induction of melanocyte dendricity (in words)” value was “very similar to the results obtained with Sildenafil; also recorded: effectively induces dendricity; also recorded: strongly increased dendricity”.

`CCCc1nn(C)c2c(=O)[nH]c(-c3cc(S(=O)(=O)N4CCN(C)CC4)ccc3OCC)nc12` [Sildenafil, 5-[2-Ethoxy-5-(4-methyl-1-piperazinylsulfonyl)phenyl]-1-methyl-3-n-propyl-1,6-dihydro-7H-pyrazolo[4,3-d]pyrimidin-7-one]: the “induction of melanocyte dendricity (in words)” value is “strongly increased dendricity”. Besides, under “lower concentrations than 10 μM”, the “concentration sufficient to induce dendrite formation” value is at least 10 nM.

The values above are taken from patent US8329656B2, “Use of a PDE5 inhibitor for treating and preventing hypopigmentary disorders” (Switch Biotech AG, priority 2004, dated 2012).
